Blank lines part the entries; values can stand above or below the compound they belong to.
Tests used:
[1] = Inhibition of linoleic acid peroxidation (Fe/ascorbic acid; TBA/MDA); assay type: biochemical; details: 25 mM (mixture: 25 mM each), linoleic acid 0.25 mg/ml; for MDA per mg of linoleic acid: control 7.95
Method: oxidation substrate: linoleic acid (0.25 mg/ml), free radicals generating system: Fe/ascorbic acid detection: thiobarbituric acid (TBA)/malondialdehyde (MDA)

[2] = Inhibition of phosphatidylcholine liposome peroxidation (Fe/ascorbic acid; TBA/MDA); details: for MDA per mg of phospholipids: control 4.4
Text: oxidation substrate: phosphatidylcholine liposomes
free radicals generating system : Fe/ascorbic acid detection: thiobarbituric acid (TBA)/malondialdehyde (MDA)

[3] = Inhibition of deoxyribose oxidation (superoxide from xanthine oxidase/hypoxanthine; TBA/MDA detection); assay type: biochemical; details: 10 mM
Text: Several in vitro tests have been carried out in order to reveal the evoked different antioxidant properties.
Experimental procedure described by J. M. C. Gutteridge in Biochemistry Journal, vol. 224 (1984), p. 761-767: oxidation substrate: deoxyribose
Superoxide anions production system: xanthine oxidase/hypoxanthine detection: thiobarbituric acid/malondialdehyde (MDA)

[4] = "Peroxidase" type activity on liposome model: reduction of phosphatidylcholine hydroperoxides (PC-OOH); assay type: biochemical
Method: The "peroxidase" type activity also has been evaluated on a "liposome" model. The phosphatidylcholine hydroperoxides (PC-OOH) are prepared according to a similar procedure to the one already described for the linoleic acid monoperoxide.
The peroxide species reduction is followed by dosing the remaining peroxides according to the method laid down by Hicks M and Gebicki J. M.--Anal. Biochem, vol 99, (1979), p. 249-253.

[5] = tested on: gingival and buccal mucosa; test: Repairing activity on the mucosa in stomatitis gingivitis; assay type: in vivo, patients; details: aqueous gel 0.28%
Text: We have been able to study this action on stomatitis gingivitis of various origin (dental prothesis badly adapted, the taking by mistake of a corrosive liquid, and colbaltotherapy of the oropharyngeal aera.
In all the cases, the causes of deterioration of the gingival and buccal mucosa have been stopped. Over and above the classical treatments that were adapted and systematically given, was given to 50% of the patients, an aqueous orange flavour gel containing 0.28% of N-acetyl-3-phenyl-3-aminopropionyl-histamine.

cataract = test: Cataract patients: modification of the visual acuity at the end of 24 months; assay type: in vivo; details: 1% in isotonic saline, only one daily local dose
Text: This example concerns the utilization of the β-alanyl-histamine to treat patients affected by cataract.
The study has been designed for a prospective evaluation of the modifications of the lens opacity in patients effected by cataract. All the patients have undergone an initial ophtalmic examination. It involved the making of the medical historical record of the patient, a measurement of the visual acuity at a maximum correction, direct or indirect ophtalmoscopies, an evaluation of the opacities with the slit lamp, a clinical grading of the lens after maximal mydriasis, a classification according to the cataract type, and lens pictures by retroillumination. Moreover, samples of blood have been taken at the beginning, then in follow-up for chemical analysis.
The general view has allowed to establish the initial state of patients before the treatment (definition of "base line").
Follow-up of ophtalmic examinations were carried out every two weeks for two months, then every month. They included maximum visual acuity after correction, direct or indirect ophtalmoscopies, a slit lamp examination, and after a maximum dilation of the pupil (excluding patients with primary open-angle glaucoma), a clinical lens grading, a classification of the cataract. Pictures also have been taken on lens observed by retroillumination or with the slit lamp.
In this study, differents groups have been determined, to be seen:
A group reference 1, with non-treated patients (5 patients, 7 eyes) […]
A group 3, has been submitted to the same treatment than the group 2, stimulated by an "attack type of treatment" during the first two weeks: 2 subcon-junctival junctival injections twice a week of 0.10 to 0.15 ml of the saline defined for the group 2 (3 patients, 4 eyes).
A group 4, which was given a local dose by way of an eye drop of isotonic saline twice a day (5 patients 7 eyes), the group 4 being like the group 1, a reference group.
Following the protocol described above, we determine the values of the optic density of the lens according to its opacity as well as the visual acuity, and the whole for 24 months. Considering these two parameters, we obtain tables giving results concerning the modification of the visual acuity at the end of 24 months in Tables 1 and 2, and the results concerning the modification of the visual opacity at the end of 24 months in Tables 3 and 4.

[6] = Protection of micro seaweed oil against oxidation (malondialdehyde dosage, one month); details: 20 mmol per L oil
Text: The pseudo-dipeptides products also can be used to protect cosmetic oils easily oxidizable, rich in unsaturated fatty acids formulated in cosmetic or dietetic.
It has been necessary to add 15 to 25 mmol of pseudo-dipeptides products of the invention per liter of oil according to the following formulation: […]
20 mmol of acetylated b-alanyl-histamine oil extracted from micro seaweed cultured in sea water very rich in unsaturated fatty acids, including EPA qs for 1L.
We have compared the ageing of this protected oil to the non-protected oil at the end of a month by the malondialdehyde dosage.

[7] = Tests with peroxidized compounds: reducing behaviour; assay type: biochemical
[8] = "Peroxidase" activity: reduction of 13-monoperoxide of linoleic acid (L-OOH); assay type: biochemical; details: 10 mM; 13-monoperoxide linoleic acid 0.5 mM; control 36.7
Method: Lipid peroxides evolution is monitored with the help of 3 methods:
1°) spectrophotometric measure at 233 nm
(O. S. Privett, C. Nickell, W. O. Lundberg, and P. D. Bayer, dans J.Am.Oil Chem. Soc, Vol 32 (1955), P.505-511
2°) Iodometric dosage: M.Hicks' and J. M. Gebicki's method, Analytical Biochemistry, vol 99 (1979), p 249-253.
3°) Chromatography on silica gel plate (hexane/ether/acetic acid 8/7/0.1).
(a) 13-monoperoxide linoleic acid 0.5 mM without reducing agent (preparation according to H. W. Gardner's method Lipids, Vol.10 (1975), p. 248-252).

gastric ulcer = details: rats with limited food-intake-time; cited from earlier work
murine splenocytes = test: Immunostimulating activity in vitro on murine splenocytes (tritiated thymidine incorporation); assay type: cell-based; details: average of three measures
Text: The procedure is extracted from: J. Kunert-Radek, H. Stepien, K. Lyson and M. Pawlikowski--"Effects of calcium channel modulators on the proliferation of mouse spleen lymphocytes in vitro"--Agents and Actions, vol. 29, Nos 3-4 (1990), p. 254-258.
The cell proliferation is followed by the measurement of the extent of incorporation of tritriated thymidine in the cells, expressed in numbers of desintegrations per mn, deducted from the background.
The results obtained with an immunostimulator of reference, concanavaline A, are given as a comparison.
The immunostimulating effect is expressed by an Index of Stimulation (IS) [formula]
The given values are corresponding to the average of three measures.

Compound: NCCc1c[nH]cn1 [Histamine, histamine]
% inhibition [1]: -32%
MDA per mg of linoleic acid [1]: 10.15 mol MDA per mg of linoleic aci
% inhibition ([2]; 1 M (so in the source)): -45%
MDA per mg of phospholipids ([2]; 1 M (so in the source)): 6.4 mol MDA per mg of phospholipid
% inhibition ([2]; 10 M (so in the source)): -63%
MDA per mg of phospholipids ([2]; 10 M (so in the source)): 6.8 mol MDA per mg of phospholipid

Compound: N[C@@H](Cc1c[nH]cn1)C(=O)O [Histidine]
% inhibition ([2]; 1 mM): -48%
MDA per mg of phospholipids ([2]; 1 mM): 6.6 mol MDA per mg of phospholipid

Compound: c1c[nH]cn1 [Imidazole]
% inhibition [1]: 11%
MDA per mg of linoleic acid [1]: 6.95 mol MDA per mg of linoleic aci

% inhibition of deoxyribose oxidation [3]: 37%
Compound: NCCC(=O)N[C@@H](Cc1c[nH]cn1)C(=O)O [L-carnosine, β-alanyl-histidine, reference compound]
% inhibition [1]: 59%
MDA per mg of linoleic acid [1]: 3.24 mol MDA per mg of linoleic aci
MDA per mg of phospholipids ([2]; 10 mM): 2.0 mol MDA per mg of phospholipid
number of moles of PC-OOH reduced/initial number of moles of PC/hour ([4]; 10 mM): 3.16 × 10^-3 moles of PC-OOH reduced/initia
number of moles of PC-OOH reduced/initial number of moles of PC/hour ([4]; 25 mM): 3.65 × 10^-3 moles of PC-OOH reduced/initia

Compound: CC(=O)NC(CC(=O)NCCc1c[nH]cn1)c1ccccc1 (stereo not shown) [N-acetyl-3-phenyl-3-aminopropionyl-histamine]
tolerance [5]: excellent tolerance

Compound: CC(=O)NCCC(=O)NCCc1c[nH]cn1 [N-acetyl-β-alanyl-histamine]
results of eye drop treatment versus those previously obtained (cataract): identical to the ones previously obtained
protection against oxidation (malondialdehyde dosage) [6]: proves well the activity of the acetylated-β-alanyl-histamine in the protection against oxidation

"peroxidase" activity [8]: 312.5 mol of L-OOH reduced/hour
Compound: [BH4-].[Na+] [NaBH4, sodium borohydride, reference compound]
reducing behaviour towards peroxidized compounds [7]: inhibits in an identical way the reaction of degradation

Compound: NCCC(=O)O [β-alanine]
% inhibition [1]: 0%
MDA per mg of linoleic acid [1]: 7.91 mol MDA per mg of linoleic aci

Compound: N- (3-aminopropionyl)--L-histidinato zinc [Z-103]
gastric ulcer treatment (gastric ulcer): good results

Compound: concanavaline A [reference compound]
Index of Stimulation (IS) (murine splenocytes; 2.5 μg/ml): 4.8
Index of Stimulation (IS) (murine splenocytes; 5 μg/ml): 25.1
Index of Stimulation (IS) (murine splenocytes; 10 μg/ml): 20.5
Index of Stimulation (IS) (murine splenocytes; 25 μg/ml): 12.6

Source: patent US5792784A, “Coupling product obtained from histamine and an amino acid” (Babizhayev; Marc, priority 1993, dated 1998)
